Measurements taken from US20240239801A1, “PYRIMIDO[5,4,D]PYRIMIDINE COMPOUNDS, COMPOSITIONS COMPRISING THEM AND USES THEREOF” (Université de Montréal, priority 2021, published 2024).
pIC50: −log10 of the molar value. Like-named read-outs stand apart in the source and are kept apart here. Blank lines part the entries; values can stand above or below the compound they belong to.

What was measured:
ARAF = biological target: T1, ARAF (Homo sapiens, UniProt P10398); test: ARAF kinase activity assay (AlphaLISA p-MEK detection); assay type: biochemical; conditions: Table A
T1 sequence (P10398 310-570 limits assumed): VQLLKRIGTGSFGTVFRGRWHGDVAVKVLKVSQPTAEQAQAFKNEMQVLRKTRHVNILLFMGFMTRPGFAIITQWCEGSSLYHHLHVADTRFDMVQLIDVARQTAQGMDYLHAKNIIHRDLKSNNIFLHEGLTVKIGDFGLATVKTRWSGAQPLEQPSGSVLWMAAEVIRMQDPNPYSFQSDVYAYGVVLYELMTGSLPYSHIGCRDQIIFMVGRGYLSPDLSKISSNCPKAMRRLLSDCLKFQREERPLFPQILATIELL
Experimental: Compound preparation: solid samples of each substances in 1dram vials were suspended in DMSO (Fisher Scientific) at a stock concentration of 20 mM. Stocks were kept at −20° C. and protected from light. If solubility of the compound at 20 mM appeared to be an issue, the initial concentration of the DMSO stock was changed to 10 mM or 5 mM.
In vitro enzymatic reactions were used for evaluating compounds intrinsic activity against BRAF, CRAF and ARAF. For BRAF and CRAF, 0.375 nM of purified GST-tagged kinases (cat #B4062-10UG and cat #R1656-10UG respectively from Millipore Sigma) were incubated with 75 nM of kinase-dead MEK1 substrate (cat #40075; BPS Bioscience) in the presence of 10 μM of Ultrapure ATP (cat #V9102; Promega; part V915A) with and without the test compound in a buffer containing 50 mM HEPES pH 7.5, 10 mM MgCl2, 1 mM EDTA, 0.01% Brij-35 and 2 mM DTT. Separate reactions were performed with the MEK1 substrate and ATP as a blank control. ARAF, kinase reactions were rigorously the same with the exception that kinase concentration was raised to 3.75 nM (cat #1768-0000-1; Reaction Biology).
For compound treatment, 5 μL/well of test substance solution are placed in a 384-well proxyplate (Perkin Elmer) and mixed with 2× concentrated kinase reactions. The dilution series is selected so that nine concentrations cover a range from 100 nM to 0.01 nM. […] The final concentration of DMSO in the assay is set at 0.05%.
ARAF kinase reactions were carried out for a total of 2 hours at 30° C. and then stopped by addition of EDTA at a final concentration of 40 mM. Reactions were then detected using the AlphaLISA® SureFire® Ultra™ p-MEK ½ (Ser218/222) (PerkinElmer) kit. Reactions were performed with 5 μL of kinase reaction according to the manufacturer's specifications in 384-well proxyplates (Perkin Elmer) followed by overnight incubation of the reactions at room temperature in a humidified chamber. After completion of the detection reactions, the signals were recorded on a Synergy Neo2 plate reader (Biotek) equipped with AlphaLISA® filters. The effect of each compound dilution on the pMEK signal generated by ARAF reactions was expressed in % inhibition and calculated as follows. An internal 100% inhibition control (average of luminescence in kinase reactions comprising kinase dead MEK1 substrate alone) was included in each plate to measure of pMEK background and was subtracted from each data point. The average of DMSO (vehicle) controls (set as 0% inhibition) was also established and used to calculate % inhibition:
IC50 values were obtained by plotting the kinase inhibition values and fitting the dose-activity curves using a log(agonist) versus response−variable slope (four parameters) function using either GraphPadPrism (V7.0) or Dotmatics Screening Ultra platform. Standards included in the ARAF kinase assay were Belvarafenib (MedChem Express cat #HY-109080; CAS #1446113-23-0), LXH254 (MedChem Express cat #HY-112089; CAS #1800398-38-2) and BGB283 (cat #HY-18957; CAS #1446090-79-4).

CRAF = CRAF (Homo sapiens, UniProt P04049); test: CRAF kinase activity assay (ADP-Glo); assay type: biochemical
Sequence of CRAF (P04049 whole entry): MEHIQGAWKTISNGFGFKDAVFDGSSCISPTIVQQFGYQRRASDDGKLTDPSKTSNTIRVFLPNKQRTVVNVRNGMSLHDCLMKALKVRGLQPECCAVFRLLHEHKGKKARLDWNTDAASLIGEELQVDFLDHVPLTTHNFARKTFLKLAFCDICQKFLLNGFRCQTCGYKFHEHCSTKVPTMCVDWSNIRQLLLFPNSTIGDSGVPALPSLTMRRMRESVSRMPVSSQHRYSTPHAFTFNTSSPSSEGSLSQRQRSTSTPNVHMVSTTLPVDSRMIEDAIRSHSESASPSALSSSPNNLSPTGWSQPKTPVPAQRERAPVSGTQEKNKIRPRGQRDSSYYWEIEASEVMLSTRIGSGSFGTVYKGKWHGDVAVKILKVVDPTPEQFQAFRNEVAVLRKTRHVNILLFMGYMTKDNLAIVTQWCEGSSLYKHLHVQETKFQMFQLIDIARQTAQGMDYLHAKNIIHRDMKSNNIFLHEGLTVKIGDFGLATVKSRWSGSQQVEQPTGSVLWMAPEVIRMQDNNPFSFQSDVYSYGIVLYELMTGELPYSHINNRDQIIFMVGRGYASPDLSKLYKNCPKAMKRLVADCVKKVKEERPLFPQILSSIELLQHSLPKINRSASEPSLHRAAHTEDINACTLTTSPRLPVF
Method in brief: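 CRAF inhibition was measured by ADP-Glo. 0.375 nM purified GST-tagged CRAF was combined with 75 nM kinase-dead MEK1 substrate and 10 μM ATP in 50 mM HEPES pH 7.5, 10 mM MgCl2, 1 mM EDTA, 0.01% Brij-35 and 2 mM DTT, with nine compound concentrations from 100 nM to 0.01 nM (0.05% DMSO), in 384-well plates for 2 hours at 30° C. Luminescence was read after adding ADP-Glo and Kinase Detection reagents. IC50 came from four-parameter curve fits.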

BRAF = biological target: T2, BRAF (Homo sapiens, UniProt P15056); test: BRAF kinase activity assay (ADP-Glo); assay type: biochemical
T2 construct: GST; purchased Millipore Sigma B4062-10UG
T2 sequence (P15056 whole entry): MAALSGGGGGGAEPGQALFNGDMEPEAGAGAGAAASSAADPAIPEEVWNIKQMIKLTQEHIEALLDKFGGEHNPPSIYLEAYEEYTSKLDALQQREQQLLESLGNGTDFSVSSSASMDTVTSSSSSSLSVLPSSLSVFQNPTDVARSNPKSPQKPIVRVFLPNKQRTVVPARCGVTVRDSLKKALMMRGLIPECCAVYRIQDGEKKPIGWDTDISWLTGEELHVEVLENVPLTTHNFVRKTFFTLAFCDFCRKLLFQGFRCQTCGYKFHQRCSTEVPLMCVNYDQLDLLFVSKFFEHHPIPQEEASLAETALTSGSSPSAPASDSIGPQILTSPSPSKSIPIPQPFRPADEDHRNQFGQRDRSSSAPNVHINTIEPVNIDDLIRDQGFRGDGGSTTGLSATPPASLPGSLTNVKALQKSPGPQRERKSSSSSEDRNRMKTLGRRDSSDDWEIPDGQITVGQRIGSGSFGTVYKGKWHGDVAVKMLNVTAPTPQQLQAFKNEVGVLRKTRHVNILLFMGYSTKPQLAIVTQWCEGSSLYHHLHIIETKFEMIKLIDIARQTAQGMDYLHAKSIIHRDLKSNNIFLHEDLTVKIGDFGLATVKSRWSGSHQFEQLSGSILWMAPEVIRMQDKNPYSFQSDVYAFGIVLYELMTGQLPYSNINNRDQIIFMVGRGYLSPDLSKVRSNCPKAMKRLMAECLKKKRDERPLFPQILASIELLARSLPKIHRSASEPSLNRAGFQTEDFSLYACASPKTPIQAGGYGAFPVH
Method in brief: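 GST-tagged BRAF (0.375 nM) was reacted with 75 nM kinase-dead MEK1 and 10 μM ATP for 2 h at 30 °C in HEPES pH 7.5 buffer with MgCl2, EDTA, Brij-35 and DTT. Compounds were tested at nine concentrations from 100 nM to 0.01 nM with 0.05% DMSO final. ADP-Glo luminescence gave % inhibition, and IC50 came from a four-parameter fit.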

HCT116 pERK = test: Phospho-ERK inhibition, AlphaLISA SureFire Ultra p-ERK 1/2; assay type: cell-based, human; conditions: for pIC50: 1 h treatment
Method in brief: (§1)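 Cells plated in RPMI-1640 with 5% FBS, held overnight, then exposed 1 h to ten-point compound dilutions (top 30 or 10 μM down to 0.33 nM; 0.5% DMSO). Lysates read for p-ERK1/2 (Thr202/Tyr204) by AlphaLISA; % inhibition relative to DMSO after subtracting a 1 μM trametinib background; IC50 from four-parameter fit.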

SW480 pERK = test: as above; assay type: cell-based, human; conditions: for pIC50: 1 h treatment, read-out: SW480 PERK IC50; for SW480 (Ymin %): lowest value of the pERK IC50 curve
Method in brief: as §1

[1] = system: RAS-mutant HCT-116 cells pERK/pMEK; test: Immunoblot analysis of pERK and pMEK; assay type: cell-based, human; conditions: FIG. 2, 1 h treatment
Experimental: For immunoblotting analysis, 500,000 HCT-116 cells were plated in 1 mL of complete RPMI-1640 growth medium in 24-well flat-bottomed transparent dishes (Costar). Cells were maintained overnight at 37° C. under 5% CO2 before treatment with compounds' dilution series for one hour. Cells were then washed once in PBS and lized in 250 μL of Igepal Lysis Buffer (50 mM Tris-HCl pH 7.5, 150 mM NaCl, 1% Igepal-CA630, 1 mM EDTA, 10% Glycerol) supplemented with Leupeptin, Aprotinin, PMSF, phosphatase inhibitor cocktail (Sigma) and Na3VO4 at 4° C. for 15 minutes with gentle rocking. Cell extracts were then cleared by centrifugation at 20,000 g at 4° C. for 10 minutes. Cleared lysates were then transferred on ice in fresh tubes and then boiled in sample loading buffer (100 mM Tris-HCl pH 6.8, 4% SDS, 0.2% bromophenol blue, 20% glycerol, 200 mM β-mercaptoethanol) for 5 minutes prior to fractionation by SDS-PAGE and transfer to nitrocellulose membranes (PALL). […]

SMILES: O=C1CCc2c(Oc3ccc4c(c3)[C@@H]3[C@H](O4)[C@H]3c3nc4ccc(C(F)(F)F)cc4[nH]3)ccnc2N1 [BGB283, reference compound]
IC50 (ARAF): > 20 nM

SMILES: Cc1c(F)cccc1S(=O)(=O)Nc1ccc(F)c(Nc2ncnc3cnc(-n4cnc5ccccc54)nc23)c1F [Example 83]
pIC50 (CRAF; Table 3): > 8.00 | pIC50 (BRAF; Table 3): 8.00 to 9.00 | pIC50 (HCT116 pERK; Table 3): > 6.30 | HCT116 (Ymin %) (HCT116 pERK; Table 3, lowest value of the pERK IC50 curve): −10% | pIC50 (SW480 pERK; Table 3): > 6.30 | SW480 (Ymin %) (SW480 pERK; Table 3): −2%

SMILES: COc1ccc(S(=O)(=O)Nc2ccc(F)c(Nc3ncnc4c(N)nc(-n5cnc6ccccc65)nc34)c2F)c(C)c1 [Example 88]
pIC50 (CRAF; Table 4): < 7.30 | pIC50 (BRAF; Table 4): < 8.00 | pIC50 (HCT116 pERK; Homo sapiens, HCT-116, Table 4): 5.00 to 6.00 | pIC50 (SW480 pERK; Homo sapiens, SW480, Table 4): 5.00 to 6.00 | SW480 (Ymin %) (SW480 pERK; Table 4): 2%

More lines, main results first:

IC50 (ARAF): > 20 nM
SMILES: Cc1ccc(NC(=O)c2ccnc(C(F)(F)F)c2)cc1-c1cc(OCCO)nc(N2CCOCC2)c1 [LXH254, reference compound]

YMIN of pERK IC50 dose response curve (HCT116 pERK; FIG. 1, RAS-mutant HCT116 cells): ~−600%
SMILES: CCCS(=O)(=O)Nc1ccc(F)c(C(=O)c2c[nH]c3ncc(Cl)cc23)c1F [PLX4720, reference compound]
paradoxical induction of pERK or pMEK signaling (immunoblot) [1]: induces the pathway
